The values that follow come from patent publication US20260132126A1, “IMIDAZOLE DERIVATIVES” (SANWA KAGAKU KENKYUSHO CO., LTD., priority 2022, published 2026).

The target in the experiment is T1, human α1A adrenergic receptor (Homo sapiens, UniProt P35348).
T1 construct: host or cells: GeneBLAzer ADRA1A-NFAT-bla CHO-K1 cells
T1 sequence (P35348 1-466): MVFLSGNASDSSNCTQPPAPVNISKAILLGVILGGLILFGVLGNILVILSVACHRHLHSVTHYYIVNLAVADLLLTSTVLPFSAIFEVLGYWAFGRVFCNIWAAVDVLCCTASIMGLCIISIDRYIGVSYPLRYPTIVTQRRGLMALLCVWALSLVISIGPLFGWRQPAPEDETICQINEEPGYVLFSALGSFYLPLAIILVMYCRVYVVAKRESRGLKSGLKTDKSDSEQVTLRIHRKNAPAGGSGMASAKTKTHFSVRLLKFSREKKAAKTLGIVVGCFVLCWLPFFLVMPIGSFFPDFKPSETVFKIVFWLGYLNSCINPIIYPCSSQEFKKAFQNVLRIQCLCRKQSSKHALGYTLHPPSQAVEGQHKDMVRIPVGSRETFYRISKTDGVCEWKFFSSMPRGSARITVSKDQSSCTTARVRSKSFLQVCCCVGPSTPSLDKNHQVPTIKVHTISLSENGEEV
In words: Ca2+ mobilization assay in human α1A adrenergic receptor-expressing cells. Type of experiment: cell-based. Further details: Emax: dose or concentration left out as unconfirmed. To be noted: for Emax at 10 µM: % activation at 10 μmol/L test compound, 100 μmol/L norepinephrine = 100%, well without test compound = 0%; for pEC50: CHO-K1 cells expressing human α1A adrenergic receptor, Fluo-4 fluorescence, concentration giving 50% response of Emax, 4-parameter logistic regression. The method, then:
CHO-K1 cells that highly express a human α1A adrenergic receptor (GeneBLAzer™ ADRA1A-NFAT-bla CHO-K1 Cells) were purchased from Thermo Fisher Scientific, Inc., and cultured according to the instructions.
The cultured human α1A adrenergic receptor-expressing cells were washed with D-PBS, then replaced with a loading buffer (2 μmol/L Fluo-4/AM, 1× PowerLoad, 2.5 mmol/L Probenecid-containing DMEM (high-glucose)) and incubated at 37° C. for 60 minutes in a 5% CO2 incubator. The cells were detached using 0.05% trypsin-EDTA solution, and suspended in an assay buffer ([…], 0.054 mol/L KCl, 1.8 mmol/L CaCl2), 1 mmol/L MgSO4, 0.11 mol/L glucose, 0.01 mol/L NaH2PO4·2H2O, […], pH 7.3) to be 500,000 cells/mL.
Test compounds were dissolved in dimethylsulfoxide, and diluted with an assay buffer containing 0.3% BSA. The final concentrations of the test compounds were set to fall within the range of 0.1 nmol/L to 10 μmol/L. As a reference compound, norepinephrine was set to have a final concentration within the range of 0.01 nmol/L to 100 μmol/L.
On a 384-well clear bottom black plate coated with poly-D-lysine (Corning Inc.), the above-described cell-suspended solution was dispersed in 40 μL each (20,000 cells/well) and allowed to stand for 10 minutes. The plate was transferred to a fluorescent imaging plate reader (FDSS7000, Hamamatsu Photonics K.K.), and measurements were started. After 1 minute from the start of the measurements, 20 μL of the test compound solutions or norepinephrine solution (total amount: 60 μL/well) was added to each well of the plate (final concentration: 0.1% BSA, 0.1% dimethylsulfoxide), and the temporal change in fluorescence intensity of Fluo-4 was further measured for 5 minutes (Ex 480 nm/Em 540 nm).
The normalized values (% activation) were used for subsequent analyses.
Emax values and EC50 values were calculated by creating a concentration-response curve of the test compounds using a 4-parameter logistic regression with XLFit, Emax value being defined as % activation of test compound at the concentration of 10 μmol/L, and EC50 value being defined as the concentration in which 50% response of the Emax values is shown.

pEC50: −log10 of the molar value.

As for `Fc1cccnc1-c1cscc1NCc1c[nH]cn1` [Example 29, N-((1H-imidazol-4-yl)methyl)-4-(3-fluoropyridin-2-yl)thiophen-3-amine], the maximal effect (Emax) at 10 µM was found to be 96% and the pEC50 is 8.64.
Taken in the same sequence, the figures for `c1ccc(-c2cscc2NCc2c[nH]cn2)nc1` [Example 30, N-((1H-imidazol-4-yl)methyl)-4-(pyridin-2-yl)thiophen-3-amine] were 97% and 9.15.
Taken in the same sequence, the figures for `COc1cncc(-c2cscc2NCc2c[nH]cn2)n1` [Example 31, N-((1H-imidazol-4-yl)methyl)-4-(6-methoxypyrazin-2-yl)thiophen-3-amine] were 103% and 9.10.
Molecule `COc1cccc(-c2ccccc2NCc2c[nH]cn2)n1` [Example 32, N-((1H-imidazol-4-yl)methyl)-2-(6-methoxypyridin-2-yl)aniline] gave an Emax at 10 µM of 100% and a pEC50 of 8.96.
As to `COc1n[nH]cc1-c1ccc(C)cc1NCc1c[nH]cn1` [Example 33, N-((1H-Imidazol-4-yl)methyl)-2-(3-methoxy-1H-pyrazol-4-yl)-5-methylaniline], the Emax at 10 µM was found to be 97% and the pEC50 was 8.41.
Taken in the same sequence, the figures for `COc1n[nH]cc1-c1ccc(F)cc1NCc1c[nH]cn1` [Example 34, N-((1H-imidazol-4-yl)methyl)-5-fluoro-2-(3-methoxy-1H-pyrazol-4-yl)aniline] were 91% and 8.89.
In turn, `CC(Nc1ccccc1-c1cccnc1)c1c[nH]cn1` (stereo not shown) [Example 35, N-(1-(1H-Imidazol-4-yl)ethyl)-2-(pyridin-3-yl)aniline] had a maximal effect (Emax) at 10 µM of 90% and a pEC50 of 8.29.
As for `COc1cccc(-c2ccccc2NC(C)c2c[nH]cn2)n1` (stereo not shown) [Example 37, N-(1-(1H-imidazol-4-yl)ethyl)-2-(6-methoxypyridin-2-yl)aniline], the maximum response (Emax) is 109% and the pEC50 was 8.68.
On to `CC(Nc1ccccc1-c1cscn1)c1c[nH]cn1` (stereo not shown) [Example 38, N-(1-(1H-imidazol-4-yl)ethyl)-2-(thiazol-4-yl)aniline], for which the Emax is 107% and the pEC50 is 9.10.
With `c1nc(CNc2cscc2-c2ccoc2)c[nH]1` [Example 41, N-((1H-Imidazol-4-yl)methyl)-4-(furan-3-yl)thiophen-3-amine], the maximal response (Emax) at 10 µM amounted to 92% and the pEC50 was 8.47.
For the molecule `c1ncc(-c2cscc2NCc2c[nH]cn2)cn1` [Example 42], the maximal effect (Emax) at 10 µM came out at 97% and the pEC50 was 8.14.
Take `COc1ncccc1-c1cscc1NCc1c[nH]cn1` [Example 43]: the maximum response (Emax) at 10 µM turned out to be 90% and the pEC50 was 9.22.
`c1ccc(-c2ccsc2)c(OCc2c[nH]cn2)c1` [Example 44, 4-((2-(Thiophen-3-yl)phenoxy)methyl)-1H-imidazole] had an Emax at 10 µM of 108% and a negative logarithm of the EC50 (pEC50) of 8.66.
`c1coc(-c2ccccc2OCc2c[nH]cn2)c1` [Example 45] gave an Emax at 10 µM of 107% and a pEC50 of 8.03.
As for `c1csc(-c2ccccc2OCc2c[nH]cn2)c1` [Example 46], the maximum response (Emax) at 10 µM amounted to 104% and the negative-log EC50 (pEC50) was 8.32.
Taken in the same sequence, the figures for `c1ccc(-c2cn[nH]c2)c(OCc2c[nH]cn2)c1` [Example 47, 4-(2-((1H-imidazol-4-yl)methoxy)phenyl)-1H-pyrazole] were 95% and 8.00.
`c1cncc(-c2ccccc2OCc2c[nH]cn2)c1` [Example 48] showed an Emax at 10 µM of 104% and a negative logarithm of the EC50 (pEC50) of 8.52.
Consider `Cc1n[nH]cc1-c1ccccc1OCc1c[nH]cn1` [Example 49], for which the maximum response (Emax) at 10 µM was 104% and the pEC50 is 8.37.
In turn, `N#Cc1n[nH]cc1-c1ccccc1OCc1c[nH]cn1` [Example 50] showed an Emax at 10 µM of 110% and a negative-log EC50 (pEC50) of 9.05.
`Fc1cncc(-c2ccccc2OCc2c[nH]cn2)c1` [Example 51] gave a maximal effect (Emax) at 10 µM of 102% and a pEC50 of 8.74.
Molecule `COc1ncccc1-c1ccccc1OCc1c[nH]cn1` [Example 52] showed an Emax at 10 µM of 90% and a pEC50 of 8.57.
Consider `COc1cncc(-c2ccccc2OCc2c[nH]cn2)c1` [Example 53], for which the Emax at 10 µM was found to be 93% and the pEC50 was 8.29.
`COc1ccncc1-c1ccccc1OCc1c[nH]cn1` [Example 54] gave a maximal effect (Emax) at 10 µM of 98% and a pEC50 of 8.80.
`Cc1ccc(-c2cn[nH]c2)c(OCc2c[nH]cn2)c1` [Example 55] showed an Emax at 10 µM of 101% and a pEC50 of 9.22.
As to `Cc1ccc(-c2c[nH]nc2C#N)c(OCc2c[nH]cn2)c1` [Example 56], the Emax at 10 µM came to 105% and the negative-log EC50 (pEC50) was 9.10.
`Cc1ccc(-c2cnccc2C)c(OCc2c[nH]cn2)c1` [Example 57] gave a maximal effect (Emax) at 10 µM of 96% and a negative logarithm of the EC50 (pEC50) of 8.21.
The molecule `Cc1n[nH]cc1-c1ccc(F)cc1OCc1c[nH]cn1` [Example 58] showed an Emax at 10 µM of 97% and a pEC50 of 9.00.
Molecule `Cc1ccc(-c2c[nH]nc2C)c(OCc2c[nH]cn2)c1` [Example 59] had an Emax at 10 µM of 101% and a pEC50 of 9.40.
`Cc1c(F)cncc1-c1ccccc1OCc1c[nH]cn1` [Example 60] gave a maximal effect (Emax) at 10 µM of 90% and a pEC50 of 8.49.
In turn, `COc1ncc(F)cc1-c1ccccc1OCc1c[nH]cn1` [Example 61] gave a maximal response (Emax) at 10 µM of 90% and a negative-log EC50 (pEC50) of 8.35.
Take `COc1ccncc1-c1ccc(C)cc1OCc1c[nH]cn1` [Example 62]: the maximal response (Emax) at 10 µM was 91% and the pEC50 is 8.62.
`COc1ccncc1-c1ccc(F)cc1OCc1c[nH]cn1` [Example 63] had a maximal response (Emax) at 10 µM of 92% and a pEC50 of 9.15.
The molecule `Cc1ncncc1-c1ccc(F)cc1OCc1c[nH]cn1` [Example 64] showed an Emax at 10 µM of 99% and a pEC50 of 8.28.
Regarding `Cc1ccc(-c2cncnc2C)c(OCc2c[nH]cn2)c1` [Example 65], the Emax at 10 µM was found to be 98% and the pEC50 was 8.17.
The molecule `Cc1ccc(-c2cnccn2)c(OCc2c[nH]cn2)c1` [Example 66, 2-(2-((1H-Imidazol-4-yl)methoxy)-4-methylphenyl)pyrazine] gave a maximal response (Emax) at 10 µM of 96% and a pEC50 of 8.89.
For `c1ccc(-c2cscn2)c(OCc2c[nH]cn2)c1` [Example 67, 4-(2-((1H-Imidazol-4-yl)methoxy)phenyl)thiazole], the maximum response (Emax) at 10 µM turned out to be 103% and the negative-log EC50 (pEC50) is 8.68.
On to `c1ccc(-c2cnccn2)c(OCc2c[nH]cn2)c1` [Example 68], for which the maximal effect (Emax) amounted to 100% and the pEC50 is 8.64.
Taken in the same sequence, the figures for `c1ccc(-c2cncnc2)c(OCc2c[nH]cn2)c1` [Example 69] were 104% and 9.05.
`c1ccc(-c2nccs2)c(OCc2c[nH]cn2)c1` [Example 70] showed an Emax of 93% and a pEC50 of 8.62.
Consider `c1ccc(-c2cncs2)c(OCc2c[nH]cn2)c1` [Example 71], for which the Emax was determined as 103% and the pEC50 is 8.72.
Taken in the same sequence, the figures for `Cc1ccncc1-c1ccccc1OCc1c[nH]cn1` [Example 72] were 106% and 8.13.
`c1ccc(-c2cnccc2C2CC2)c(OCc2c[nH]cn2)c1` [Example 73] showed a maximal effect (Emax) of 89% and a pEC50 of 9.15.
Molecule `COc1c(F)cncc1-c1ccccc1OCc1c[nH]cn1` [Example 74] had an Emax of 96% and a pEC50 of 9.30.
Consider `COc1ncncc1-c1ccccc1OCc1c[nH]cn1` [Example 75], for which the Emax amounted to 95% and the pEC50 is 9.70.
